Data as given in patent publication US10376476B2, “Panicein compounds, compositions and uses thereof” (CENTRE NATIONAL DE LA RECHERCHE SCIENTIFIQUE, priority 2014, dated 2019).

The compounds below were run against T1, human Patched (hPtc) expressed in S. cerevisiae (Homo sapiens, UniProt Q13635) (assay: Screening test 1: resistance of Patched-expressing yeast to doxorubicin (yeast growth, absorbance 600 nm)). Details: 10 μg/mL fraction or purified compound, 10 μM doxorubicin.
T1 construct: MAP; expressed in transfected cells; host or cells: Saccharomyces cerevisiae K699
T1 sequence (Q13635 1-1447): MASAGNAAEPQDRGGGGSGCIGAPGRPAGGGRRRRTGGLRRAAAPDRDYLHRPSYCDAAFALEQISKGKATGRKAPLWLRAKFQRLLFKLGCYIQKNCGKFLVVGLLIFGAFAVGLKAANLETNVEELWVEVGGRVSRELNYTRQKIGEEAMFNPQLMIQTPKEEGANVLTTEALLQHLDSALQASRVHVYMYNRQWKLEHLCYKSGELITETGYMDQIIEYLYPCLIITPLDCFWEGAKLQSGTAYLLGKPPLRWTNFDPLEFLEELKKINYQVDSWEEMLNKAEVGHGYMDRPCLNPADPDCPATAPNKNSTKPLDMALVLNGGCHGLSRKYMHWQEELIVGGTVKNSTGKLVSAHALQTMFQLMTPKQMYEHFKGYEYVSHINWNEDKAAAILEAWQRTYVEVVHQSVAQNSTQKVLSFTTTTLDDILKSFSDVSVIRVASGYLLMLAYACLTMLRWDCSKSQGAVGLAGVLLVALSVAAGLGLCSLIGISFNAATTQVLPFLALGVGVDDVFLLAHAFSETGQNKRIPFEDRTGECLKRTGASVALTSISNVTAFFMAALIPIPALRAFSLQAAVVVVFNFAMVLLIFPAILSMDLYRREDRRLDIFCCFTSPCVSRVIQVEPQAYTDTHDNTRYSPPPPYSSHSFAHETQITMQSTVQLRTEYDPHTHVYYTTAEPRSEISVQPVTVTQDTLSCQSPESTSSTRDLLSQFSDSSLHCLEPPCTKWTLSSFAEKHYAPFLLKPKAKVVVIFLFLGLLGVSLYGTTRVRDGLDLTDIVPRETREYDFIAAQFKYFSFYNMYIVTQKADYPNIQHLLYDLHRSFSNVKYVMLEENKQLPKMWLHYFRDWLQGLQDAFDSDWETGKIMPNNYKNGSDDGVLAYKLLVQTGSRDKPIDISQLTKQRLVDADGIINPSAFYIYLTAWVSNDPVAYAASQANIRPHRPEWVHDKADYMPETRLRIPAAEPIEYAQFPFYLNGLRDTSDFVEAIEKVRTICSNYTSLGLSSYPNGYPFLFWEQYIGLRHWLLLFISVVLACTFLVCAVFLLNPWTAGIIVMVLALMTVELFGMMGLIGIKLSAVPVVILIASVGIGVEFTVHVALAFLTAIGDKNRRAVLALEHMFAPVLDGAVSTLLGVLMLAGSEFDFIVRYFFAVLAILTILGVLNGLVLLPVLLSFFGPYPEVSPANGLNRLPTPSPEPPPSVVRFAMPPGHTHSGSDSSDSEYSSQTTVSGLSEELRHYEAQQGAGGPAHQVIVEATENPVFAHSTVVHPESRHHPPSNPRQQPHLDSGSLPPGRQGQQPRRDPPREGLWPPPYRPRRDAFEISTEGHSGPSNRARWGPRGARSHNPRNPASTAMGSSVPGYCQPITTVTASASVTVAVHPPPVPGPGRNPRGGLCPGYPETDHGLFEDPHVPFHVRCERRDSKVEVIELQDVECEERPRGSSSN
Type: cell-based
Description: A. Haliclona mucosa sponge. B. Haliclona mucosa methanolic fraction contains inhibitors of the resistance of Patched-expressing yeasts to doxorubicin. Yeast S. cerevisiae expressing hPtc were grown in 96 well plates in the presence of 10 μg/mL of the methanolic fraction of Haliclona mucosa crude extract dissolved in DMSO and in presence or not of 10 μM of doxorubicin (dxr). The growth of yeasts was measured by absorbance at 600 nm and the results shown are the mean of three independent experiments. C. Purification profile of Haliclona mucosa methanolic fraction. A preparative phenyl-hexyl HPLC column was used with a gradient starting at (47 H20: 53 ACN: 0.1 TFA) to (0 H20: 100 ACN: 0.1 TFA), flow rate: 10.0 mL/min, injection volume: 75 μl at 100 mg/mL. […] Purified compounds dissolved in DMSO were added (at 10 μg/mL) to the growth medium containing or not 10 μM dxr. The growth of yeasts was measured by absorbance at 600 nm.
S. cerevisiae expressing human Patched were grown in 10 mL of minimal medium (supplemented with 2% of glucose and amino acids cocktail without leucine) at 30° C. When the exponential phase was obtained (OD600=5-7), yeasts were precultured in the same medium to OD600=1-2. Yeasts were then diluted in rich medium containing 2% of glucose in 96-well plates. Methanolic or purified fractions (at 10 μg/mL final concentration) were added in all wells, and doxorubicin (10 μM final concentration) was added in half of the wells. Plates were incubated at 18° C. on a shaker at 1250 rpm (microtitre plate shaker SSL5 Stuart) and absorbance at 600 nm was recorded for about 72 hours.
Inventors cultured yeast S. cerevisiae expressing human Patched in their plasma membrane as previously described (Bidet et al., 2011, 2012) in 96 well plates. Methanolic fraction of Haliclona mucosa crude extracts was prepared, dissolved in DMSO at 10mg/mL and added at a final concentration of 10 μg/mL to the yeast culture medium supplemented or not with doxorubicin (dxr). As previously reported (Bidet et al., 2012), human Patched confers a resistance to growth inhibition by dxr, an […] used to treat a wide range of cancers (FIG. 2B).

SMILES	inhibition of the resistance (growth) of hPtc-expressing yeast in presence of dxr
C/C(=C\Cc1cc(O)ccc1O)CCc1c(C)c(O)c(O)c(C=O)c1C [P2, Panicein C]	strongly inhibit
C/C(=C\Cc1cc(O)ccc1O)CCc1c(C)cc(O)c(C=O)c1C [P3, Panicein B3]	strongly inhibit
Cc1cc(O)c(C=O)c(C)c1CCC1(C)C=Cc2cc(O)ccc2O1 (stereo not shown) [P4, Panicein B2]	lighter
COc1cc(C)c(CC/C(C)=C/Cc2cc(O)ccc2O)c(C)c1C [P5, Panicein A hydroquinone]	strongly inhibit
